This is an account of results in patent US7166590B2, “Amino acid derivatives” (Ono Pharmaceutical Co., Ltd., priority 1997, dated 2007).

This experiment has as its target T1, N-type calcium channel (Homo sapiens, UniProt Q00975).
T1 construct: endogenous in cells
Briefly: Determination of inhibitory activity on N-type calcium channel (Fura-2 calcium influx, KCl depolarization, with nifedipine). In kind it is cell-based. The settings on record: compound at final concentration of 3 μM, depolarized by 80 mM potassium chloride, Fura-2 fluorescence, read-out: Inhibitory activity on Ca influx (%). How it is done:
Determination of Inhibitory Activity on N-Type Calcium Channel:
Cell line was differentiated according to the method described in FEBS Letters, 235, 178-182, 1988. The cell was loaded with fluorescent reagent, Fura-2•AM (at the final concentration of 10 μM), at 37° C. for 30 minutes and suspended in Krebs-buffer containing HEPES (25 mM) to obtain the cell suspension. The obtained cell suspension was incubated in the presence or absence of the compounds of the present invention with nifedipine for 5 minutes. The cell was depolarized by adding potassium chloride solution (at the final concentration of 80 mM) thereto and then a fluorescence intensity at the emission wavelength of 500 nm excited by the UV of 340 nm and 380 nm alternately was measured using the intracellular calcium analyzer (Nippon Bunko Co., CAF-110). The inhibitory activity of the compound of the present invention (at the final concentration of 3 μM) on calcium influx into the cell was calculated from the difference in changing the fluorescence intensity at peak (ΔR) according to the following equation. [formula]

Molecules are shown by their SMILES. Structures can show the parent of a compound that is named as a salt.

T1 sequence (Q00975 whole entry): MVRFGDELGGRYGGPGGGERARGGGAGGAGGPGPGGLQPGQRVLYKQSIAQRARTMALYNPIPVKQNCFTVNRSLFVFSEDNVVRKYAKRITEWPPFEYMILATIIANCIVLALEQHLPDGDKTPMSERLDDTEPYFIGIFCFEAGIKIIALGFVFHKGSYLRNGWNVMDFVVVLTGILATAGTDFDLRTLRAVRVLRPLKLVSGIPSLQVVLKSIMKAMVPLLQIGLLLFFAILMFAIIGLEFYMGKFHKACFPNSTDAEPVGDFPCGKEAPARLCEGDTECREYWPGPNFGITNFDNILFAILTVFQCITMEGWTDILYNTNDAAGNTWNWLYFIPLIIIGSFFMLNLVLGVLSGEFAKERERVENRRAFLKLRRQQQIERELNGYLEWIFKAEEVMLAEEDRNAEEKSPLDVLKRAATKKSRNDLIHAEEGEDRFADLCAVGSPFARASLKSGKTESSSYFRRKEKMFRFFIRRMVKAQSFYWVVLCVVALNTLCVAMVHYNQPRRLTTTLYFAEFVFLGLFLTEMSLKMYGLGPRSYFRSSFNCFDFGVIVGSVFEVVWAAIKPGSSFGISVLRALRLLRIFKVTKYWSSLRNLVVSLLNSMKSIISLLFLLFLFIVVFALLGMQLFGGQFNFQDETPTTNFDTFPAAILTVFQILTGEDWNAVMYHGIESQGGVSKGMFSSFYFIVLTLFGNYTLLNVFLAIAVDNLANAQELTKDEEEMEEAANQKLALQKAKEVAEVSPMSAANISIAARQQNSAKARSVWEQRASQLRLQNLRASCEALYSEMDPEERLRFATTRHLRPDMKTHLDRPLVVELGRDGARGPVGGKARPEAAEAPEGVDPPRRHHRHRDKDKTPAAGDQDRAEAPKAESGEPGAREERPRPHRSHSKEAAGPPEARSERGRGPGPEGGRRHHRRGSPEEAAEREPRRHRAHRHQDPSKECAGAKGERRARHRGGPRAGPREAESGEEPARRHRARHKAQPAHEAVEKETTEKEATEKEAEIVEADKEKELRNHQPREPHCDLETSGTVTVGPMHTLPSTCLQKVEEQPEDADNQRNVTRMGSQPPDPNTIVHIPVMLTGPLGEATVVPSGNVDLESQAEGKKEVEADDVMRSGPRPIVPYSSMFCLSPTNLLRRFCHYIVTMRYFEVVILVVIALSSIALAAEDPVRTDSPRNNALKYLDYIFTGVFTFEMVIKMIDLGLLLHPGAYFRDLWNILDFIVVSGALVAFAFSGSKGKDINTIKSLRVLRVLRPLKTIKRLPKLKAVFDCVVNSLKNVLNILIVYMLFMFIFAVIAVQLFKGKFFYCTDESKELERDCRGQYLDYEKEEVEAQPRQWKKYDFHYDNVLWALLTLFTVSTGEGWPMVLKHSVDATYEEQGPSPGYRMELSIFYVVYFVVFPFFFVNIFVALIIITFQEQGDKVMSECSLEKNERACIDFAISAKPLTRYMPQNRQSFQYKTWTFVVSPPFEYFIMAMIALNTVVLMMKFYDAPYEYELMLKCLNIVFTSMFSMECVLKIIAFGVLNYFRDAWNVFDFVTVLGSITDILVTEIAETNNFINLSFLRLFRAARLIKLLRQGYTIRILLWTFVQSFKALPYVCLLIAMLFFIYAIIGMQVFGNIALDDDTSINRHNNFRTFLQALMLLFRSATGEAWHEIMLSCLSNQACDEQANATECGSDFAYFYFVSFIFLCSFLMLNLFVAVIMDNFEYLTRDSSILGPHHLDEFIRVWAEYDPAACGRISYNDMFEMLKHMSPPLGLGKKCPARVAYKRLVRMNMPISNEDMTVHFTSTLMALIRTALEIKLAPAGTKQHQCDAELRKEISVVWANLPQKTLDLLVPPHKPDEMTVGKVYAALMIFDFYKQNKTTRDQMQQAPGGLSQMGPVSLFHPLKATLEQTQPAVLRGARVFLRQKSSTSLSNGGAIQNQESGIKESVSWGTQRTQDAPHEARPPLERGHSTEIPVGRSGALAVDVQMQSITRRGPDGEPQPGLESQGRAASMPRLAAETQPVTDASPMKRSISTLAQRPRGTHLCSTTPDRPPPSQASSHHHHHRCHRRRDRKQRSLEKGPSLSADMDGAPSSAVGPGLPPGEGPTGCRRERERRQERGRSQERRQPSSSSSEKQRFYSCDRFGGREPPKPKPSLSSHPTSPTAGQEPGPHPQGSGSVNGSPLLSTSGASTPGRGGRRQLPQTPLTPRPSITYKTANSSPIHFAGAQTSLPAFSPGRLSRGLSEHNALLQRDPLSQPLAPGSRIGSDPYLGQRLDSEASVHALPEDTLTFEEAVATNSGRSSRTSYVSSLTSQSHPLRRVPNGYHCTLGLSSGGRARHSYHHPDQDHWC

As to `O=C(N[C@@H](CSCC1CCCCC1)C(=O)NCc1ccc(Oc2ccccc2)cc1)[C@@H]1CSCN1` [Example 9(13), (2R)-N-(4-phenoxybenzyl)-3-cyclohexylmethylthio-2-((4R)-thiazolidin-4-ylcarbonylamino)propanamide.hydrochloride], the inhibition at 3 µM turned out to be 88%.
The figure for `CC(C)(C)OC(=O)N[C@@H](COCC1CCCCC1)C(=O)NCc1ccc([N+](=O)[O-])cc1` [Example 2(86), (2S)-N-(4-nitrobenzyl)-3-cyclohexylmethoxy-2-t-butoxycarbonylamino-propanamide] is 83%; for `COc1ccc(CNC(=O)[C@H](CSCC2CCCCC2)NC(=O)OC(C)(C)C)cc1` [Example 2(80), (2R)-N-(4-methoxybenzyl)-3-cyclohexylmethylthio-2-t-butoxycarbonylamino-propanamide] it is 87%.
As to `CC(C)(C)OC(=O)N1CSC[C@H]1C(=O)N[C@@H](CSCC1CCCCC1)C(=O)NCc1ccc(Oc2ccccc2)cc1` [Example 6(68), (2R)-N-(4-penoxybenzyl)-3-cyclohexylmethylthio-2-((4R)-3-t-butoxycarbonyl-thiazolidin-4-ylcarbonylamino)propanamide], the inhibition at 3 µM is 73%.
Regarding `COc1ccc(CNC(=O)[C@H](CSCC2CCCCC2)NC(=O)[C@@H]2CSCN2C(=O)OC(C)(C)C)cc1` [Example 6(44), (2R)-N-(4-methoxybenzyl)-3-cyclohexylmethylthio-2-((4R)-3-t-butoxycarbonyl-thiazolidin-4-ylcarbonylamino)propanamide], the inhibition at 3 µM came to 86%.
The figure for `COc1ccc(CNC(=O)[C@H](COCC2CCCCC2)NC(=O)OC(C)(C)C)cc1` [compound 2] is 75%; for `COc1ccc(CNC(=O)[C@H](COCC2CCCCC2)NS(=O)(=O)c2ccccc2)cc1` [Example 6(22), (2S)-N-(4-methoxybenzyl)-3-cyclohexylmethoxy-2-phenylsulfonylamino-propanamide] it is 79%; for `COc1ccc(CNC(=O)[C@H](COCC2CCCCC2)NC(=O)C2CCCCC2)cc1` [Example 6(27), (2S)-N-(4-methoxybenzyl)-3-cyclohexylmethoxy-2-cyclohexylcarbonylamino-propanamide] it is 72%.
The figure for `CC(C)(C)OC(=O)N[C@@H](CCC(=O)OCc1ccc([N+](=O)[O-])cc1)C(=O)OC1CCCC1` [Example 2(29), (2S)-4-(4-nitrobenzyloxycarbonyl)-2-t-butoxycarbonylaminobutanoic acid.cyclopentyl ester] is 75%.
